Test results as given in ChEMBL document CHEMBL4725402, “Discovery of thiapyran-pyrimidine derivatives as potential EGFR inhibitors” (Bioorg Med Chem, 2020).
Blank lines part the entries; values can stand above or below the molecule they belong to. Calls of active or inactive are those of the source. The calls are words filed in the database; no cut-off is given here.

Experiments:
[1] = system: A549; test: Antiproliferation activity against human A549 cells assessed as reduction in cell viability measured after 72 hrs by MTT assay; format: functional, cell-based; settings: A549, 72 h
[2] = system: NCI-H1975; test: Antiproliferation activity against human NCI-H1975 cells harboring EGFR T790M/L858R mutation assessed as reduction in cell viability measured after 72 hrs by MTT assay; format: functional, cell-based; settings: NCI-H1975, 72 h
[3] = system: HeLa; test: Antiproliferation activity against human HeLa cells assessed as reduction in cell viability measured after 72 hrs by MTT assay; format: functional, cell-based
[4] = system: MCF7; test: Antiproliferation activity against human MCF7 cells assessed as reduction in cell viability measured after 72 hrs by MTT assay; format: functional, cell-based; settings: MCF7, 72 h
[5] = system: L02; test: Cytotoxicity against human L02 cells assessed as reduction in cell viability measured after 72 hrs by MTT assay; format: cell-based; settings: L02, 72 h
[6] = Selectivity index, ratio of IC50 for human L02 cells to IC50 for human A549 cells assessed as reduction in cell viability measured after 72 hrs by MTT assay; format: toxicity; settings: L02 cells versus A549 cells, read-out: Ratio IC50
[7] = organism: Homo sapiens; test: Inhibition of PI3K (unknown origin) at 1 uM relative to control
[8] = biological target: Serine/threonine-protein kinase mTOR (Homo sapiens) (UniProt P42345); test: Inhibition of mTOR (unknown origin) at 1 uM relative to control
[9] = biological target: Hepatocyte growth factor receptor (Homo sapiens) (UniProt P08581); test: Inhibition of C-MET (unknown origin) at 1 uM relative to control
Sequence of Hepatocyte growth factor receptor (Homo sapiens) (P08581 whole entry): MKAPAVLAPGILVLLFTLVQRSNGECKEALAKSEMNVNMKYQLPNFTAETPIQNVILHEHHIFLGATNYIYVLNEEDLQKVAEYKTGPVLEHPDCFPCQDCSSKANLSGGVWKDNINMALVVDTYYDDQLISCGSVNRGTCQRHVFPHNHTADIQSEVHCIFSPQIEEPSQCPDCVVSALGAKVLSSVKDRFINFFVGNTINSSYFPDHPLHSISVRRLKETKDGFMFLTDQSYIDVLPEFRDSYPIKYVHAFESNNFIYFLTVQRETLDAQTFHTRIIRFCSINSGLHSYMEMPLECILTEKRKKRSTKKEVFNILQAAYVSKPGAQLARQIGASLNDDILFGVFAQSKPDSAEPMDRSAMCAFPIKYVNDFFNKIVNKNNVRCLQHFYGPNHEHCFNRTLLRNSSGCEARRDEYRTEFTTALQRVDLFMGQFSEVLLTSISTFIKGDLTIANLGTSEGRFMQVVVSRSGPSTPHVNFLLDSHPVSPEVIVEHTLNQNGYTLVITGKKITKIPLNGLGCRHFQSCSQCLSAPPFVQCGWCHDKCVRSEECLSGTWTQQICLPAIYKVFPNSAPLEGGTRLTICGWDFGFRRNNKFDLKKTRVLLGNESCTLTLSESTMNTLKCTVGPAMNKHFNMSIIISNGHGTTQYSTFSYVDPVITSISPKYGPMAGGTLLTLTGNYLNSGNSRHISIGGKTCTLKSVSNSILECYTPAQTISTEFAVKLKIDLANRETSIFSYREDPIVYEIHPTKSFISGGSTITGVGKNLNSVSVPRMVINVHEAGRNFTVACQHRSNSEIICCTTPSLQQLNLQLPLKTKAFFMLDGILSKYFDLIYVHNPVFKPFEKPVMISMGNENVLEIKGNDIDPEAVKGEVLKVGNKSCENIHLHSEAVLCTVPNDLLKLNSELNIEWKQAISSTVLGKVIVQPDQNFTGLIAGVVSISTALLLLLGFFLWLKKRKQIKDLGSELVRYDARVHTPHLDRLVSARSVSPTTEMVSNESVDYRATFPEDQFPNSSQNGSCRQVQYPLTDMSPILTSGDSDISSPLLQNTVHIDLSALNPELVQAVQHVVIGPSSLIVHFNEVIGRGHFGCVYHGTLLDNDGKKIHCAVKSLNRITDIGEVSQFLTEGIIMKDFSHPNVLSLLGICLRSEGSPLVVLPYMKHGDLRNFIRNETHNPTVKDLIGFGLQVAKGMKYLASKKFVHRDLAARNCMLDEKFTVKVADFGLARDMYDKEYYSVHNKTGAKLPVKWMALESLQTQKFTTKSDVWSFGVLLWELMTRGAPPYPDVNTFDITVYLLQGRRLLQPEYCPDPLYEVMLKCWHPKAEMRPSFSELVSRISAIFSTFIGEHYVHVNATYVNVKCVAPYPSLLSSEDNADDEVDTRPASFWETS

[10] = biological target: Vascular endothelial growth factor receptor 2 (Homo sapiens) (UniProt P35968); test: Inhibition of KDR (unknown origin) at 1 uM relative to control
Sequence of Vascular endothelial growth factor receptor 2 (Homo sapiens) (P35968 whole entry): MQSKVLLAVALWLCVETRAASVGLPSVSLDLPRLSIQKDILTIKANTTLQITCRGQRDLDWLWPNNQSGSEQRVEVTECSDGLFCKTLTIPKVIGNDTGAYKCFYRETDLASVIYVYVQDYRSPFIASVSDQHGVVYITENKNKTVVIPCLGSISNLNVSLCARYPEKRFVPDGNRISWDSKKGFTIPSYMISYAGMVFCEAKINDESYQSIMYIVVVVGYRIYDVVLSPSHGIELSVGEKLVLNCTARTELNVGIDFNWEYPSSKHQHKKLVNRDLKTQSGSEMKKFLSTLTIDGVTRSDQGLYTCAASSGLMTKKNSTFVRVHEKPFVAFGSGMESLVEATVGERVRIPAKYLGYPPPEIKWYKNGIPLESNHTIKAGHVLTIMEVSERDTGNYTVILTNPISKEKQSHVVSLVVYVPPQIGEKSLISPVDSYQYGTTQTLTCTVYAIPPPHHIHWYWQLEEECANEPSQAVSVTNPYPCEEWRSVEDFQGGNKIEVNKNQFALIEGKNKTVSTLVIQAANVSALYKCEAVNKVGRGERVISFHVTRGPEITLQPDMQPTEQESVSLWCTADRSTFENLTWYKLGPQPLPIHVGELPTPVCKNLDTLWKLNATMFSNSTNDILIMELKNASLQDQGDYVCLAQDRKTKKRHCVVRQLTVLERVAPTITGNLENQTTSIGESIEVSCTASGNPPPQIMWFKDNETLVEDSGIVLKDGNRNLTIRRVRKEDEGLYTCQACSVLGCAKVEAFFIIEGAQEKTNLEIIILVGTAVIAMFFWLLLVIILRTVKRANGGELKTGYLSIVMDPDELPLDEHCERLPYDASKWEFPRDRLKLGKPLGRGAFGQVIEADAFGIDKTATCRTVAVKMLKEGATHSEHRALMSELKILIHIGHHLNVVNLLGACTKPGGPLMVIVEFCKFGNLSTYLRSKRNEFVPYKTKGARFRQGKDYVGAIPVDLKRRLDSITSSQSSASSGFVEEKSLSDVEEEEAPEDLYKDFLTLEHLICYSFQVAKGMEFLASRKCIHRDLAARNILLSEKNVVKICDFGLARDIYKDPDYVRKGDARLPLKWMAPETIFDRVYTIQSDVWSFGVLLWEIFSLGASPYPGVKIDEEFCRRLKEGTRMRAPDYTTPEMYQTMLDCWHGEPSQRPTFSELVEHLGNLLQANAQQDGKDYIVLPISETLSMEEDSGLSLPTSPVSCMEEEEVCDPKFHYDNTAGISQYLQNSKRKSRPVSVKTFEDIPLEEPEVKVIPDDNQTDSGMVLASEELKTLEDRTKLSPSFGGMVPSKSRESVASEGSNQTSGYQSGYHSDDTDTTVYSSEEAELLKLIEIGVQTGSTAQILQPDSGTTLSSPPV

[11] = biological target: Epidermal growth factor receptor (Homo sapiens, UniProt P00533); test: Inhibition of wild type EGFR (unknown origin) using FAM-labelled peptide as substrate incubated for 10 mins in presence of ATP by Kinase Glo luminescence assay
Sequence of Epidermal growth factor receptor (Homo sapiens, UniProt P00533) (P00533 whole entry): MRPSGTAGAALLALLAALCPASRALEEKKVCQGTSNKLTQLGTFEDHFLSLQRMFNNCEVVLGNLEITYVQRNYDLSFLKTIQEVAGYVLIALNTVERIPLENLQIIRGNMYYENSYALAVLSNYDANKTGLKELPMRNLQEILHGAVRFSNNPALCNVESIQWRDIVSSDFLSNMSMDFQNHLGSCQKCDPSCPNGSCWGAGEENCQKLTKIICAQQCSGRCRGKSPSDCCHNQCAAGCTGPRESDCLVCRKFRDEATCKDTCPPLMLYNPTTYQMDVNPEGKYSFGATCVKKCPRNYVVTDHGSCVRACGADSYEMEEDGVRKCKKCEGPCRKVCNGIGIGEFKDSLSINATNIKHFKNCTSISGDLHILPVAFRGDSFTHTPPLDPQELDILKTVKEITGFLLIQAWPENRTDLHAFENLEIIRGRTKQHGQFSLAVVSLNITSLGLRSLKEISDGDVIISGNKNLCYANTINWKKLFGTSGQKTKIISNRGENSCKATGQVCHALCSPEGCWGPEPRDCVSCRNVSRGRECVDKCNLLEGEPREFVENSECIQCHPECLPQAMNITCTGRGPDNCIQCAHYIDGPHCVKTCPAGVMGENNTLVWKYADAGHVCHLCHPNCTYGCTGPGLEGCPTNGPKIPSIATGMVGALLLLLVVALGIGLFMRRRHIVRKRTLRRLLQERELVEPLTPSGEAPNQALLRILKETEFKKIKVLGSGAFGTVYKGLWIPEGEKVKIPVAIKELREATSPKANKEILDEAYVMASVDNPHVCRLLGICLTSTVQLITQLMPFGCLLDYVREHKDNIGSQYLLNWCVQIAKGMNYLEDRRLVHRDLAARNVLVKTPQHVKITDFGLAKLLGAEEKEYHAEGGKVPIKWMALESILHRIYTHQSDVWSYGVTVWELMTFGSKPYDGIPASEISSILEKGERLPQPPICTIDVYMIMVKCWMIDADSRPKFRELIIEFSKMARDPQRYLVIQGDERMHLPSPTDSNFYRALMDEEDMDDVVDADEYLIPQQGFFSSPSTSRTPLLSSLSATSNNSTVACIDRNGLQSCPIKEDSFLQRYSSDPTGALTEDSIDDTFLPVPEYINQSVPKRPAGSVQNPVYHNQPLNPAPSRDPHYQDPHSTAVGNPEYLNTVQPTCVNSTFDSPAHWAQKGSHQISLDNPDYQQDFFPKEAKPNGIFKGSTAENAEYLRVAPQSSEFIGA

[12] = biological target: Epidermal growth factor receptor (Homo sapiens, UniProt P00533, T790M); test: Inhibition of EGFR T790M mutant (unknown origin) using FAM-labelled peptide as substrate incubated for 10 mins fin presence of ATP by Kinase Glo luminescence assay
[13] = biological target: Epidermal growth factor receptor (Homo sapiens, UniProt P00533, L858R/T790M); test: Inhibition of EGFR T790M/L858R mutant (unknown origin) using FAM-labelled peptide as substrate incubated for 10 mins in presence of ATP by Kinase Glo luminescence assay
Sequence of Epidermal growth factor receptor (Homo sapiens, UniProt P00533, L858R/T790M) (P00533 25-1210 T790M/L858R limits assumed): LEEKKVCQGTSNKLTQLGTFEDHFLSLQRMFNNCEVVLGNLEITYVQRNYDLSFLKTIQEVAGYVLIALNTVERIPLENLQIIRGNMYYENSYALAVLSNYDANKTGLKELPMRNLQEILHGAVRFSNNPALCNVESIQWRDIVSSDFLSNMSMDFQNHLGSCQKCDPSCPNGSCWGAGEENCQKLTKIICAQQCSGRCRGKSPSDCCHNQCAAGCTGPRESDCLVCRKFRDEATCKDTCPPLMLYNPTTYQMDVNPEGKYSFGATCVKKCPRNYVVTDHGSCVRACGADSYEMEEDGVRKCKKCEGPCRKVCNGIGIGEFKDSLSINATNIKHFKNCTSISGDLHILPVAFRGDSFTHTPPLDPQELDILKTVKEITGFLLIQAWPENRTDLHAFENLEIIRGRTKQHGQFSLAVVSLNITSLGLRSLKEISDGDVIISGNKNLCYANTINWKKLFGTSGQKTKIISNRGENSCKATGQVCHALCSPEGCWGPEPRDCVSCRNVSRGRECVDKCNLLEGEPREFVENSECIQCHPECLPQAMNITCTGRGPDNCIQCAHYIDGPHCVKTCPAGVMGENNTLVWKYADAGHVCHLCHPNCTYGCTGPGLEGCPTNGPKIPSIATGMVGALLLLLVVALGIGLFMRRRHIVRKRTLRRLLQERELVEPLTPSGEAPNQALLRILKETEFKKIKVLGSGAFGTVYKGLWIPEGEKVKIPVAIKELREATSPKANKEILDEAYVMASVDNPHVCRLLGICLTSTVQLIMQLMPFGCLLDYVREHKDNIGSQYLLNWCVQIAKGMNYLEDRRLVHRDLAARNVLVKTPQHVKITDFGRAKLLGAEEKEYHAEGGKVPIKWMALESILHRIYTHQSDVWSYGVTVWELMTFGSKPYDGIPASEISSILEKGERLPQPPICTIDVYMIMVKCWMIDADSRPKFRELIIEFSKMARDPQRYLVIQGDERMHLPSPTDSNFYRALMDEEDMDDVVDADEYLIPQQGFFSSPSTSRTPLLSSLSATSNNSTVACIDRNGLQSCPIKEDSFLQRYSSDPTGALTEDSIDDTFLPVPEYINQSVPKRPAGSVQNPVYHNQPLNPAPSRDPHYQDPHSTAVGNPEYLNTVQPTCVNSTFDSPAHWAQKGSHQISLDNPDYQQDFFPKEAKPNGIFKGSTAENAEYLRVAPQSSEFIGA

[14] = system: NCI-H1975; test: Induction of morphological changes in human H1975 cells assessed as chromatin shrinkage and apoptotic body formation at 0.01 to 0.10 uM incubated for 6 hrs by AO staining-based fluorescent microscopic analysis; format: functional, cell-based; settings: dose microM 0.01-0.10, time 6.0 hrs
[15] = system: NCI-H1975; test: Induction of morphological changes in human H1975 cells assessed as chromatin agglutination in nucleus at 0.01 to 0.10 uM incubated for 6 hrs by Hoechst33258 staining-based fluorescent microscopic analysis; format: functional, cell-based; settings: dose microM 0.01-0.10, time 6.0 hrs
[16] = system: NCI-H1975; test: Induction of morphological changes in human H1975 cells assessed as dense nuclei staining at 0.01 to 0.10 uM incubated for 6 hrs by Hoechst 33258 staining-based fluorescent microscopic analysis; format: functional, cell-based; settings: dose microM 0.01-0.10, time 6.0 hrs
[17] = system: NCI-H1975; test: Induction of apoptosis in human H1975 cells assessed as late apoptotic cells at 1 to 10 uM incubated for 48 hrs Annexin V-FITC staining based flow cytometric analysis; format: functional, cell-based; settings: dose microM 1-10, time […]
[18] = system: NCI-H1975; test: Induction of apoptosis in human H1975 cells assessed as necrotic cells at 1 uM incubated for 48 hrs Annexin V-FITC staining based flow cytometric analysis (reference value: 0.08 %); format: functional
[19] = system: NCI-H1975; test: Induction of apoptosis in human H1975 cells assessed as late apoptotic cells at 1 uM incubated for 48 hrs Annexin V-FITC staining based flow cytometric analysis (reference value: 1.77 %); format: functional
[20] = system: NCI-H1975; test: Induction of apoptosis in human H1975 cells assessed as live cells at 1 uM incubated for 48 hrs Annexin V-FITC staining based flow cytometric analysis (reference value: 96.09 %); format: functional
[21] = system: NCI-H1975; test: Induction of apoptosis in human H1975 cells assessed as early apoptotic cells at 1 uM incubated for 48 hrs Annexin V-FITC staining based flow cytometric analysis (reference value: 2.06 %); format: functional
[22] = system: NCI-H1975; test: Induction of apoptosis in human H1975 cells assessed as necrotic cells at 5 uM incubated for 48 hrs Annexin V-FITC staining based flow cytometric analysis (reference value: 0.08 %); format: functional
[23] = system: NCI-H1975; test: Induction of apoptosis in human H1975 cells assessed as late apoptotic cells at 5 uM incubated for 48 hrs Annexin V-FITC staining based flow cytometric analysis (reference value: 1.77 %); format: functional
[24] = system: NCI-H1975; test: Induction of apoptosis in human H1975 cells assessed as live cells at 5 uM incubated for 48 hrs Annexin V-FITC staining based flow cytometric analysis (reference value: 96.09 %); format: functional
[25] = system: NCI-H1975; test: Induction of apoptosis in human H1975 cells assessed as early apoptotic cells at 5 uM incubated for 48 hrs Annexin V-FITC staining based flow cytometric analysis (reference value: 2.06 %); format: functional
[26] = system: NCI-H1975; test: Induction of apoptosis in human H1975 cells assessed as necrotic cells at 10 uM incubated for 48 hrs Annexin V-FITC staining based flow cytometric analysis (reference value: 0.08 %); format: functional
[27] = system: NCI-H1975; test: Induction of apoptosis in human H1975 cells assessed as late apoptotic cells at 10 uM incubated for 48 hrs Annexin V-FITC staining based flow cytometric analysis (reference value: 1.77 %); format: functional
[28] = system: NCI-H1975; test: Induction of apoptosis in human H1975 cells assessed as live cells at 10 uM incubated for 48 hrs Annexin V-FITC staining based flow cytometric analysis (reference value: 96.09 %); format: functional
[29] = system: NCI-H1975; test: Induction of apoptosis in human H1975 cells assessed as early apoptotic cells at 10 uM incubated for 48 hrs Annexin V-FITC staining based flow cytometric analysis (reference value: 2.06 %); format: functional
[30] = system: A549; test: Cell cycle arrest in human A549 cells assessed as accumulation at G0/G1 phase at 1 uM incubated for 48 hrs […] staining based flow cytometric analysis (reference value: 74.69 %); format: functional
[31] = system: A549; test: Cell cycle arrest in human A549 cells assessed as accumulation at S phase at 1 uM incubated for 48 hrs […] staining based flow cytometric analysis (reference value: 22.64 %); format: functional
[32] = system: A549; test: Cell cycle arrest in human A549 cells assessed as accumulation at G2/M phase at 1 uM incubated for 48 hrs […] staining based flow cytometric analysis (reference value: 2.67 %); format: functional
[33] = system: A549; test: Cell cycle arrest in human A549 cells assessed as accumulation at G0/G1 phase at 5 uM incubated for 48 hrs […] staining based flow cytometric analysis (reference value: 74.69 %); format: functional
[34] = system: A549; test: Cell cycle arrest in human A549 cells assessed as accumulation at S phase at 5 uM incubated for 48 hrs […] staining based flow cytometric analysis (reference value: 22.64 %); format: functional
[35] = system: A549; test: Cell cycle arrest in human A549 cells assessed as accumulation at G2/M phase at 5 uM incubated for 48 hrs […] staining based flow cytometric analysis (reference value: 2.67 %); format: functional
[36] = system: A549; test: Cell cycle arrest in human A549 cells assessed as accumulation at G0/G1 phase at 10 uM incubated for 48 hrs […] staining based flow cytometric analysis (reference value: 74.69 %); format: functional
[37] = system: A549; test: Cell cycle arrest in human A549 cells assessed as accumulation at S phase at 10 uM incubated for 48 hrs […] staining based flow cytometric analysis (reference value: 22.64 %); format: functional
[38] = system: A549; test: Cell cycle arrest in human A549 cells assessed as accumulation at G2/M phase at 10 uM incubated for 48 hrs […] staining based flow cytometric analysis (reference value: 2.67 %); format: functional
[39] = system: A549; test: Cell cycle arrest in human A549 cells assessed as accumulation at G2/M phase at 1 to 10 uM incubated for 48 hrs […] staining based flow cytometric analysis; format: functional; settings: dose microM 1-10, time […]

IC50 [1]: 4.22 µM
IC50 [2]: 2.19 µM
IC50 [3]: 20.9 µM
IC50 [4]: 11.7 µM
inhibition [7]: 48.1%
inhibition [8]: -1.2%
inhibition [9]: 0.5%
inhibition [10]: 3.9%
IC50 [11]: > 1 µM
IC50 [12]: 0.542 µM
IC50 [13]: 0.132 µM
Structure (SMILES): C=CC(=O)Nc1cccc(Oc2nc(Nc3ccc(OC)cc3)nc3c2CSCC3)c1
IC50 [5]: > 50 µM
selectivity ratio at 72 h [6]: > 11.8
Activity [14]: Active
Activity [15]: Active
Activity [16]: Active
Activity [17]: Dose-dependent effect
Activity [18]: 0.85%
Activity [19]: 8.23%
Activity [20]: 87.16%
Activity [21]: 3.76%
Activity [22]: 0.6%
Activity [23]: 10.7%
Activity [24]: 81.2%
Activity [25]: 7.5%
Activity [26]: 0.58%
Activity [27]: 15.46%
Activity [28]: 78.76%
Activity [29]: 5.2%
Activity [30]: 71.16%
Activity [31]: 20.22%
Activity [32]: 8.62%
Activity [33]: 74.87%
Activity [34]: 14.44%
Activity [35]: 10.69%
Activity [36]: 62.57%
Activity [37]: 14.2%
Activity [38]: 23.23%
Activity [39]: Dose-dependent effect

inhibition [7]: inactive
inhibition [8]: inactive
inhibition [9]: 7.1%
inhibition [10]: inactive
Structure (SMILES): C=CC(=O)Nc1cccc(Oc2nc(Nc3ccc(N4CCN(C)CC4)cc3)nc3ccsc23)c1 [OLMUTINIB]
Activity [22]: 0.34%
Activity [23]: 10.76%
Activity [24]: 84.27%
Activity [25]: 4.63%
Activity [33]: 76.63%
Activity [34]: 14.65%
Activity [35]: 8.72%
